Reference: patent US7390783B2, “Charged phospholipid compositions and methods for their use” (Ottawa Heart Institute Research Corporation, priority 2000, dated 2008)
“Also recorded” adds a separate entry of the source.

What was measured:
HDL, LDL and VLDL = assay: Lipoprotein surface charge after injection of PI or PC vesicles into rabbits (agarose gel electrophoresis); type: in vivo, rabbit; conditions: intravenous injection of vesicles, fasted rabbit
Description: (§1) 1-palmitoyl-2-oleoyl-phosphatidylcholine (PC) and 1-palmitoyl-2-oleoyl phosphatidylinositol (PI) vesicles are prepared by drying to completion 40 μmol of each lipid into a 12×75 mm culture tube under N2. The lipids are solubilized in 3 mL of sterile saline comprising 150 mM sodium chloride (pH 7.2) by sonication for 1 minute at constant duty cycle. The vesicles are incubated at 37° C. for 10 minutes and then sonicated at a high output for 4 minutes in 10° C. water bath under N2. In order to determine the rate of clearance of cholesterol from the test animals (rabbits), a radioactive tracer is added to the vesicle preparations prior to injection into the rabbit. 200 μL of 1 μCi/μmL [^3H]-FC is dried into a 12×75 mm culture tube with 40 μmol of PI or POPC. 3 ml of PBS is added to the dried lipids and the mixture is sonicated as described above. This tracer/vesicle preparation is injected and then 5 min later, the PI or PC vesicles were injected and blood is sampled as described below.
(§2) Male New Zealand white rabbits (3.5-4.0 kg) are fasted for 12 hours prior to injection and remain fasted until after data for the final time point is taken. Rabbits have free access to water during this time. A catheter is inserted into the marginal ear vein and blood samples are collected into tubes containing 7.5% (K3) EDTA solution at the desired time points. A pre-injection blood sample is taken and the vesicle solution of either PI (n=4), or PC (n=2) or saline (n=1) is injected into the marginal ear vein. A sample of blood is removed at 10, 30 min, 1, 3, 6 and 24 h after the injection. All blood samples are placed on ice and then centrifuged at 3000 rpm for 15 min at 4° C. to separate the plasma. In order to ensure that lecithin:cholesterol acyl transferase (LCAT) is inhibited in the stored plasma, iodoacetamide (150 mM) is added to plasma samples as taught by Guerin et al. (1994).
Lipoprotein fractions are isolated by sequential ultracentrifugation (VLDL+IDL, d<1.019 g/mL; LDL, d=1.019-1.063 g/mL; and HDL, d=1.063-1.21 g/mL) as known to one of skill in the art, and lipoprotein lipid composition (total cholesterol, free cholesterol (FC), and triglyceride (TG) concentrations) are determined enzymatically using kits from Roche Diagnostic (Laval, PQ). An aliquot of each lipoprotein isolated is dialysed into PBS and its surface charge characteristics were determined by electrophoresis on pre-cast 0.5% agarose gels using the procedure of Sparks and Phillips (1992).
Referring now to FIG. 1, there is illustrated the effect of injection of PI and PC vesicles on the estimated surface potential of HDL, LDL, and VLDL proteins in vivo. […] PC, which is a neutral phospholipid, may also bind to the lipoproteins. However since PC is a neutral phospholipid, no significant change in the migration of the lipoproteins is observed. The increased migratory property of lipoproteins in a gel peaks following injection of PI and returns to normal by about 24 hours. […] Similarly, the VLDL fraction is estimated to have an initial surface potential of about −8.8 mV, which increases to about −11.2 mV after 10 minutes. LDL is estimated to have an initial surface potential of about −3.9 mV, and peaks about 60 min after the PI injection at about −8.0 mV.

[1] = molecular target: T1, lecithin:cholesterol acyltransferase (LCAT) (Oryctolagus cuniculus, UniProt P53761); assay: Plasma cholesterol esterification by LCAT after injection of PC or PI; type: in vivo, rabbit; conditions: after injection of vesicles
T1 construct: endogenous LCAT activity is reduced to about 18% that of normal; from tissue; host or cells: plasma of PI- or PC-injected rabbits
T1 sequence (P53761 25-440): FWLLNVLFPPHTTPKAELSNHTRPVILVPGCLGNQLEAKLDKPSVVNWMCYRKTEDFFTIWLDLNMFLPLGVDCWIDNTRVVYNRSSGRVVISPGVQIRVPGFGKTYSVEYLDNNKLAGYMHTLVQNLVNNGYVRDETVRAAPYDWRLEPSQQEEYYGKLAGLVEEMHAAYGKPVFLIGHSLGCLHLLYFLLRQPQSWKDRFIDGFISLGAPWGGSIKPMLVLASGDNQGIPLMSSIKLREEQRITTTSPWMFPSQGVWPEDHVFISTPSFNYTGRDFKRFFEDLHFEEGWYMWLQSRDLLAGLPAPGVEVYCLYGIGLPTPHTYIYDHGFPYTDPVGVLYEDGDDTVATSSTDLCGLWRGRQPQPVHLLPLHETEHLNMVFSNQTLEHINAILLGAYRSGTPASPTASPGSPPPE
Description: Male New Zealand white rabbits (3.5-4.0 kg) are fasted for 12 hours prior to injection and remain fasted until after data for the final time point is taken. Rabbits have free access to water during this time. A catheter is inserted into the marginal ear vein and blood samples are collected into tubes containing 7.5% (K3) EDTA solution at the desired time points. A pre-injection blood sample is taken and the vesicle solution of either PI (n=4), or PC (n=2) or saline (n=1) is injected into the marginal ear vein. A sample of blood is removed at 10, 30 min, 1, 3, 6 and 24 h after the injection. All blood samples are placed on ice and then centrifuged at 3000 rpm for 15 min at 4° C. to separate the plasma. In order to ensure that lecithin:cholesterol acyl transferase (LCAT) is inhibited in the stored plasma, iodoacetamide (150 mM) is added to plasma samples as taught by Guerin et al. (1994). The effect of PI on LCAT activity is examined using plasma samples that are not treated with iodoacetamide. 400 μL aliquots of plasma for each time point are incubated for 30 min with 10 μCi of [^3H]-FC on filter paper discs (Dobiasova et al., 1991) at 37° C. and the reaction is terminated with the addition of 2 mL ethanol. Reaction products are extracted in hexane and the amount of [^3H] associated with CE and FC is determined by thin layer chromatography. […] However, endogenous LCAT activity is reduced to about 18% that of normal (PC injected control) after about 10 min post injection of PI. Also, PI injection reduces the fractional rate of cholesterol esterification from about 45% to about 8%, of initial values, per hour. […] To investigate the effect of PI on the production and transport of CE in the plasma, the amount of radioactive CE was measured at each time point (data not shown). […] Rather it appears that PI may modify intravascular cholesterol levels by mobilizing a cellular cholesterol pool.

[2] = system: lipoprotein CE and FC in whole blood (red blood cells); assay: Incubation of whole blood with PC or PI vesicles: lipoprotein CE and FC; type: cell-based, human
Description: Referring now to FIG. 4, there is graphically depicted the effect of PI or PC vesicles on lipoprotein CE and FC. Incubation of whole blood with PC vesicles results in a 60% increase in the CE content of the lipoproteins, while FC content is reduced by about 10%. […] Negatively charged phospholipids appeared to promote a reciprocal exchange of CE for FC between red blood cells and the lipoprotein particles. […] It has previously been taught that red blood cells cannot store CE and therefore utilize a membrane-bound CE hydrolase to maintain membrane FC levels. Without wishing to be bound by theory, the results therefore indicate that PI stimulates the degradation of lipoprotein CE.

[^3H]-FC in plasma = Clearance of [^3H]-FC from the blood of a rabbit; type: in vivo
Description: as §1, §2
Referring now to FIG. 5, there is shown the clearance of [^3H]-FC at various times after rabbits are injected with [^3H]-FC and either PI or PC vesicles. […] In comparison, rabbits injected with PC contain approximately 90% of the injected radioactivity after 1 h.

[3] = system: faecal cholesterol output; assay: Faecal cholesterol excretion after PI or PC injection; type: in vivo, rabbit; conditions: injection into a rabbit
Description: Rabbits are injected with 40 μmol PI or PC vesicles containing 400 μCi […]. Animals are sacrificed at 30 min, and bile is aspirated from the gall bladder. In addition the livers are harvested, homogenized and tissue radioactivity determined. Sterol excretion in the faeces is measured similarly except that faecal cholesterol levels are measured over a time period of 96 hours. Referring now to FIG. 7, there is graphically depicted the effect of PI injection associated with sterol excretion. […] PC injection into a rabbit had no effect on cholesterol excretion, while PI injection enhanced faecal cholesterol output by about 300% at 2 days post injection. The increase in cholesterol output returned to normal by about day 4.

Human plasma = assay: Plasma clotting time (prothrombin time); type: biochemical; conditions: human plasma incubated with increasing amounts of vesicles, 24 h at 4° C.
Description: Referring now to FIG. 11, there is shown the effect of charged lipid on blood coagulation. Human plasma was incubated with various amounts of uncharged vesicles, phosphatidylcholine (PC) or anionic vesicles, phosphatidylinositol (PI), for 24 h at 4° C. Prothrombin time was then measured with the use of a commercially available kit.

lipoprotein lipase = molecular target: T2, lipoprotein lipase (Homo sapiens, UniProt P06858); assay: Lipid hydrolysis by lipoprotein lipase in plasma enriched with charged lipid; type: biochemical; conditions: not shown
T2 sequence (P06858 28-475): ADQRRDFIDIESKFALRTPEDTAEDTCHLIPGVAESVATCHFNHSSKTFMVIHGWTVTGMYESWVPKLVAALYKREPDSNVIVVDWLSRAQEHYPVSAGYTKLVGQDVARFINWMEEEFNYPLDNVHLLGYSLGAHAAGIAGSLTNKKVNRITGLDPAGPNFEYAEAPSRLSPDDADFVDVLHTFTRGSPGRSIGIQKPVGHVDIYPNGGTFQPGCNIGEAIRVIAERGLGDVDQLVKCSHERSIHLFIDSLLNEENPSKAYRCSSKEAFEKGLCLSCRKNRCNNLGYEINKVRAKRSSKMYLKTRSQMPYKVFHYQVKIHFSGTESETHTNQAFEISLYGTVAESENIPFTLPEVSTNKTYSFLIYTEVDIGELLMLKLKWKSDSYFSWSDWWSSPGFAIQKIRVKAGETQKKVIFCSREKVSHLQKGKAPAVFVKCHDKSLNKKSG
Excerpt: Referring now to FIG. 10, there is shown the effect of lipoprotein charge on hepatic lipase. High density lipoprotein particles were enriched to contain various amounts of anionic or cationic lipids and then characterized as substrates for pure human hepatic lipase. Decreasing the net negative charge on the lipoprotein was associated with a reduction in the lipolytic activity of is hepatic lipase. Lipoprotein charge can also be used to regulate lipoprotein lipase. […] Lipid hydrolysis by hepatic or lipoprotein lipase can therefore be affected by alterations in the charge properties of plasma lipoproteins.

[4] = system: VLDL, LDL and HDL in human plasma; assay: Lipoprotein charge in human plasma incubated with PI or DOTAP vesicles; type: biochemical; conditions: 24 h at 4° C.; for Lipoprotein Surface Charge LDL: no lipid 2.5; for Lipoprotein Surface Charge VLDL: no lipid 5.5; for Lipoprotein Surface Charge HDL: no lipid 11.8
Description: Different concentrations as shown below of negatively charged phospholipid (PI) or positively charged phospholipid (DOTAP) were added to human plasma and the surface charge on the lipoproteins was determined. The human plasma was incubated with PI or dioleoyl trimethylammonium-propane (DOTAP) vesicles for 24 h at 4° C. and then electrophoresed on 0.5% agarose. Lipoprotein charge was calculated from electrokinetic analyses.

HDL = assay: Oral administration of PS: HDL charge in a human subject; type: in vivo
Description: Referring now to FIG. 9, there is graphically depicted the results of oral administration of 300 mg of PS to a human subject. Plasma samples were drawn before, and over a 24 hour period after, administration of PS. HDL charge was determined electrokinetically after electrophoresis of the plasma samples on 0.5% agarose. […] Thus, orally administered negatively charged lipids is absorbed intestinally and alters lipoprotein charge in the blood stream.

1-palmitoyl-2-oleoyl-phosphatidylcholine [PC, reference compound]
effect on lipoprotein net negative surface charge / migration of HDL, LDL and VLDL into agarose gel (HDL, LDL and VLDL): negligible effect; also recorded: did not significantly affect migration | effect on LCAT activity / cholesteryl esterification [1]: No appreciable change | increase in CE content of the lipoproteins [2]: 60% | reduction of lipoprotein FC content [2]: about 10% | [^3H]-FC in plasma, of the initial dose ([^3H]-FC in plasma; after about 1 h): approximately 90% | time to clear [^3H]-FC to a comparable baseline level ([^3H]-FC in plasma; rabbit, in vivo): > 6 h | effect on cholesterol excretion [3]: no effect | effect on plasma clotting time (prothrombin time) (Human plasma): no significant effect

CCCCCCCC/C=C\CCCCCCCC(=O)OCC(C[N+](C)(C)C)OC(=O)CCCCCCC/C=C\CCCCCCCC (centres unmarked) [DOTAP, dioleoyl trimethylammonium propane]
effect on lipid hydrolysis by lipoprotein lipase (lipoprotein lipase): inhibited lipid hydrolysis | Lipoprotein Surface Charge LDL ([4]; 5 mg/ml): 2.2 -mV | Lipoprotein Surface Charge VLDL ([4]; 5 mg/ml): 4.6 -mV | Lipoprotein Surface Charge HDL ([4]; 5 mg/ml): 11.4 -mV | Lipoprotein Surface Charge LDL ([4]; 10 mg/ml): 1.9 -mV | Lipoprotein Surface Charge VLDL ([4]; 10 mg/ml): 4.6 -mV | Lipoprotein Surface Charge HDL ([4]; 10 mg/ml): 11.2 -mV | Lipoprotein Surface Charge LDL ([4]; 50 mg/ml): 1.9 -mV | Lipoprotein Surface Charge VLDL ([4]; 50 mg/ml): 4.1 -mV | Lipoprotein Surface Charge HDL ([4]; 50 mg/ml): 11.0 -mV | Lipoprotein Surface Charge LDL ([4]; 100 mg/ml): 1.7 -mV | Lipoprotein Surface Charge VLDL ([4]; 100 mg/ml): 4.1 -mV | Lipoprotein Surface Charge HDL ([4]; 100 mg/ml): 10.9 -mV

phosphatidylserine [PS]
HDL charge (HDL; by 6 hours after 300 mg oral, from −10.9 mV before, 'over' = more negative): over −12 mV | HDL charge (HDL; by 24 hours after 300 mg oral): −11.4 mV
